Test results reported in paper PMC3781056, “New Pyrazolopyrimidine Inhibitors of Protein Kinase D as Potent Anticancer Agents for Prostate Cancer Cells” (PLoS ONE, 2013).
Entries after “also recorded” stand apart in the source; their conditions may differ. Where two headings read alike, the source gives them in different places.

Tests used:
Assay type in all cases: biochemical
PKCδ = target: T1, PKCδ (Homo sapiens, UniProt Q05655); assay: In vitro radiometric PKC kinase assay
T1 construct: purchased SignalChem (Richmond, BC, Canada)
Experimental: (§1) The PKC kinase assay was carried out by co-incubating 1 µCi [γ-^32P]ATP, 20 µM ATP, 50 ng of purified PKCα or PKCδ and 5 µg of myelin basic protein 4–14, 0.25 mg/mL bovine serum albumin, 0.1 mg/mL phosphatidylcholine/phosphatidylserine (80/20%) (1 µM), 1 µM phorbol dibutyrate in 50 µL of kinase buffer containing 50 mM Tris-HCl, pH 7.5, 4 mM MgCl2 and 10 mM β-mercaptoethanol. For the CAMK assay, 50 ng of CAMKIIα and 2 µg syntide-2 substrate in 50 µL kinase buffer were incubated with 0.1 mM MgCl2, 1 µCi of [γ-^32P] ATP, 70 µM ATP. 0.5 mM CaCl2 and 30 ng/µL calmodulin were preincubated for 15 min on ice and then added in the kinase reaction. The reactions were incubated at 30°C for 10 min and 25 µL of the reaction was spotted on Whatman P81 filter paper. The filter paper was washed 3 times in 0.5% phosphoric acid, air dried and counted using Beckman LS6500 multipurpose scintillation counter.

PKCα = target: T2, PKCα (Homo sapiens, UniProt P17252); assay: In vitro radiometric PKC kinase assay
T2 construct: purchased SignalChem (Richmond, BC, Canada)
Experimental: as §1

CAMKIIα = target: T3, CAMKIIα (Homo sapiens, UniProt Q9UQM7); assay: In vitro radiometric CAMK kinase assay; settings: up to 10 µM
T3 construct: purchased SignalChem (Richmond, BC, Canada)
Experimental: as §1

Recombinant human PKD2 = target: T4, Recombinant human PKD2 (Homo sapiens, UniProt Q9BZL6); assay: Radiometric PKD kinase assay, 10-point IC50
T4 sequence (Q9BZL6 1-878): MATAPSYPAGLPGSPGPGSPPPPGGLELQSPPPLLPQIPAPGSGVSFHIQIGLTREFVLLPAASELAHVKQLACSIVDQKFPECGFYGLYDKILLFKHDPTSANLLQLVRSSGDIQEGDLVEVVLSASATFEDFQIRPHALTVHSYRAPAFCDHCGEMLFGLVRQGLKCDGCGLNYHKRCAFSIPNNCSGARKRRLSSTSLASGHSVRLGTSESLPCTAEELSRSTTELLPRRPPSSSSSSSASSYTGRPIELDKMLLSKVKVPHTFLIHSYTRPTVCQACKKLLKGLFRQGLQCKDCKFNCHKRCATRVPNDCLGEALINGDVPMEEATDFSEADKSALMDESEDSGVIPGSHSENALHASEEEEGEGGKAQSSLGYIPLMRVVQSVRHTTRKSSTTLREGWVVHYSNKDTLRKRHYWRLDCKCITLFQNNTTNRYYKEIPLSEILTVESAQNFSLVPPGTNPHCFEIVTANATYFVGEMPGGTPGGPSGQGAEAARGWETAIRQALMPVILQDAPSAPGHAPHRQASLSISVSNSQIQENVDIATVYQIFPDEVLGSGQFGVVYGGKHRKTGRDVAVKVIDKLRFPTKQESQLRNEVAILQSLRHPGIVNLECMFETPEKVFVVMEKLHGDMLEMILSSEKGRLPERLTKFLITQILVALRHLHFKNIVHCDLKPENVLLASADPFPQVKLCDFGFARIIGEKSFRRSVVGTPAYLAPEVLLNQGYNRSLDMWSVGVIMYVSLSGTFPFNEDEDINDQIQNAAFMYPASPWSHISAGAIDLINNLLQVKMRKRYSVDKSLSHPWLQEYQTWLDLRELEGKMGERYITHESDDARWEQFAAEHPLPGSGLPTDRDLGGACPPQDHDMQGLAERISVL
Experimental: Recombinant human PKD1, 2, or 3 proteins were incubated in a mixture containing a peptide substrate derived from a PKD substrate, HDAC-5, and 10 different concentrations of the two compounds.
The IC50 values were calculated as the mean ±SEM of at least three independent experiments with triplicate determinations at each concentration of drug in each experiment. The data were plotted as a function of drug concentration and a representative graph is shown.

PKD1 = target: T5, PKD1 (Homo sapiens, UniProt Q15139); assay: ATP competition, Lineweaver-Burk analysis of PKD1 kinase activity; settings: Lineweaver-Burk plots, increasing ATP
T5 construct: GST; purchased Enzo Life sciences (Farmingdale, NY)
T5 sequence (Q15139 1-912): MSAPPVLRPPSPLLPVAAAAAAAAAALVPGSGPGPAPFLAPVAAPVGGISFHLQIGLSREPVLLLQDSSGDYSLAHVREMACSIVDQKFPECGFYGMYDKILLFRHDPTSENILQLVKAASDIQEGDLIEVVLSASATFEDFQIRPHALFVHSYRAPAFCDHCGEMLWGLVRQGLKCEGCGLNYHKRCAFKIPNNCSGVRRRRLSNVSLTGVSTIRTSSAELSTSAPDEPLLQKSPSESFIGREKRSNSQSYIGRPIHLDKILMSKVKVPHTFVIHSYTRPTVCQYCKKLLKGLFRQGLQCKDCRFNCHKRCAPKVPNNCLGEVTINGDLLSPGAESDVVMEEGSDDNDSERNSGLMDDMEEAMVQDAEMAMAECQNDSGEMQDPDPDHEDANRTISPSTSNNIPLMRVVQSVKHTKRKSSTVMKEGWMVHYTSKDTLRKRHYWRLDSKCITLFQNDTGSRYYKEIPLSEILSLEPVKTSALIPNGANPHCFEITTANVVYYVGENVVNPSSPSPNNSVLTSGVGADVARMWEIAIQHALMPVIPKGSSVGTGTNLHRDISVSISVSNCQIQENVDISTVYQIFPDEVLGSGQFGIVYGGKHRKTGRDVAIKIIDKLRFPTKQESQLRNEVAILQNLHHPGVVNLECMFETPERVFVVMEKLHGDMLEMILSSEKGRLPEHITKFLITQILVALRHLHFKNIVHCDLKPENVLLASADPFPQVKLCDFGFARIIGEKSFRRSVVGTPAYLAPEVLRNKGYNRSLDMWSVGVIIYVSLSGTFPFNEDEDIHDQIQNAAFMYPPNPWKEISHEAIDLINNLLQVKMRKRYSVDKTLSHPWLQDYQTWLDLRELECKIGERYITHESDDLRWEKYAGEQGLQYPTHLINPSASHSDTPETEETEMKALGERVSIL
Excerpt: Lineweaver-Burk plots were generated by plotting the reciprocal of reaction velocities (1/v) against the reciprocal of ATP concentrations (1/[ATP]) at different compound concentrations. The points were fitted by linear regression.
Data presented were representative of three independent experiments.

T1 sequence (Q05655 whole entry): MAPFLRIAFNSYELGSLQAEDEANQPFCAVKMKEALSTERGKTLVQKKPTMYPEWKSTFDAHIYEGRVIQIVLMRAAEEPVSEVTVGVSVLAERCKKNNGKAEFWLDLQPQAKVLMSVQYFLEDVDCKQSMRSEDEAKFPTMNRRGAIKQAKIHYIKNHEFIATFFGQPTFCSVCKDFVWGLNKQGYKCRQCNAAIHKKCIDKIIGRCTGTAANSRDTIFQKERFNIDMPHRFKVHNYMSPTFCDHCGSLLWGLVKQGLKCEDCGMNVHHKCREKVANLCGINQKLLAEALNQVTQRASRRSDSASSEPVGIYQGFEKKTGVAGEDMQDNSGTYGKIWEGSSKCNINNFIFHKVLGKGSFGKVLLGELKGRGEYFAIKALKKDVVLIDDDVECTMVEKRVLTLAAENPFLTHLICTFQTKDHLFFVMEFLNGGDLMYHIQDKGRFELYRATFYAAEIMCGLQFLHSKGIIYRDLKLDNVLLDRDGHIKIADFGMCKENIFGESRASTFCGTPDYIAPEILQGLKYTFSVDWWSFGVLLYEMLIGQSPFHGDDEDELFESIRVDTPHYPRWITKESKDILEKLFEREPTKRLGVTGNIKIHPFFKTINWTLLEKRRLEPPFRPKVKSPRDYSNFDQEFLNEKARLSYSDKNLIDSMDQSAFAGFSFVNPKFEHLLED

Row | inhibition of PKCδ (PKCδ; 10 µM) | inhibition of PKCα (PKCα; 10 µM) | IC50 (Recombinant human PKD2; mean ± SEM, read-out: IC50 PKD2) | IC50 (Recombinant human PKD2; value in the figure, representative graph, read-out: PKD2 IC50) | SMILES | inhibition of PKCδ, in words (PKCδ; 0.1, 1 and 10 µM) | inhibition of PKCα, in words (PKCα; 0.1, 1 and 10 µM) | inhibition of CAMKIIα, in words (CAMKIIα) | IC50 (Recombinant human PKD2; IC50 PKD2, mean ± SEM) | IC50 (Recombinant human PKD2; PKD2 IC50, value printed in the figure, representative graph) | mode of PKD1 inhibition with respect to ATP (PKD1)
1 | – | – | – | – | CC(C)(C)n1nc(-c2cccc3ccccc23)c2c(N)ncnc21 [Compound 1-NA-PP1, 1-(t-Butyl)-3-(naphthalen-1-yl)-1H-pyrazolo[3,4-d]pyrimidin-4-amine] | No significant inhibitory activities; also recorded: did not significantly inhibit | No significant inhibitory activities; also recorded: did not significantly inhibit | little activity; also recorded: did not significantly inhibit | 133 nM | 133 nM | ATP-competitive inhibitors
2 | > 50% | > 50% | 115 nM | 108 nM | O=C(c1ccc(Nc2nccc(-c3cc4ccccc4s3)n2)cc1)N1CCC(N2CCCC2)CC1 [IKK-16, reference compound] | – | – | almost completely abrogated its activity | – | – | ATP-competitive inhibitors
